Measured values: PubChem BioAssay (NCI)
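Cultured in 96-well plates, cells were exposed to test compound for 48 hours across five concentrations. TGI: concentration producing complete growth inhibition.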

Key:
Assay in all cases: NCI tumour cell line growth inhibition, 48 h
786-0 renal = system: 786-0 renal
A498 renal = system: A498 renal
A549 NSCLC = system: A549 NSCLC
ACHN renal = system: ACHN renal
CAKI-1 renal = system: CAKI-1 renal
CCRF-CEM leukemia = system: CCRF-CEM leukemia
COLO 205 colon = system: COLO 205 colon
DLD-1 colon = system: DLD-1 colon
DMS 114 small cell lung = system: DMS 114 small cell lung
DMS 273 small cell lung = system: DMS 273 small cell lung
EKVX NSCLC = system: EKVX NSCLC
HCT-116 colon = system: HCT-116 colon
HCT-15 colon = system: HCT-15 colon
HL-60(TB) leukemia = system: HL-60(TB) leukemia
HOP-18 NSCLC = system: HOP-18 NSCLC
HOP-62 NSCLC = system: HOP-62 NSCLC
HOP-92 NSCLC = system: HOP-92 NSCLC
HT29 colon = system: HT29 colon
IGROV1 ovarian = system: IGROV1 ovarian
K-562 leukemia = system: K-562 leukemia
KM12 colon = system: KM12 colon
KM20L2 colon = system: KM20L2 colon
LOX IMVI melanoma = system: LOX IMVI melanoma
LXFL 529 NSCLC = system: LXFL 529 NSCLC
M14 melanoma = system: M14 melanoma
M19-MEL melanoma = system: M19-MEL melanoma
MALME-3M melanoma = system: MALME-3M melanoma
MOLT-4 leukemia = system: MOLT-4 leukemia
NCI-H226 lung = system: NCI-H226 lung
NCI-H23 lung = system: NCI-H23 lung
NCI-H460 lung = system: NCI-H460 lung
NCI-H522 lung = system: NCI-H522 lung
OVCAR-3 ovarian = system: OVCAR-3 ovarian
OVCAR-4 ovarian = system: OVCAR-4 ovarian
OVCAR-5 ovarian = system: OVCAR-5 ovarian
OVCAR-8 ovarian = system: OVCAR-8 ovarian
RPMI-8226 leukemia = system: RPMI-8226 leukemia
RXF 393 renal = system: RXF 393 renal
RXF-631 renal = system: RXF-631 renal
SF-268 CNS = system: SF-268 CNS
SF-295 CNS = system: SF-295 CNS
SF-539 CNS = system: SF-539 CNS
SK-MEL-2 melanoma = system: SK-MEL-2 melanoma
SK-MEL-28 melanoma = system: SK-MEL-28 melanoma
SK-MEL-5 melanoma = system: SK-MEL-5 melanoma
SK-OV-3 ovarian = system: SK-OV-3 ovarian
SN12C renal = system: SN12C renal
SNB-19 CNS = system: SNB-19 CNS
SNB-75 CNS = system: SNB-75 CNS
SNB-78 CNS = system: SNB-78 CNS
SW-620 colon = system: SW-620 colon
TK-10 renal = system: TK-10 renal
U251 CNS = system: U251 CNS
UACC-257 melanoma = system: UACC-257 melanoma
UACC-62 melanoma = system: UACC-62 melanoma
UO-31 renal = system: UO-31 renal
XF 498 CNS = system: XF 498 CNS
HCC-2998 colon = system: HCC-2998 colon
SR leukemia = system: SR leukemia

Measured: TGI

O=c1[nH]c(Br)nc2c(Br)c[nH]c12
not listed: HCC-2998 colon | SR leukemia
> 100 µM: all other assays above

O=C(OCCOCBr)c1ccccc1
not listed: M19-MEL melanoma | RXF 393 renal | XF 498 CNS
> 100 µM: all other assays above
